From patent US20190175571A1, “IMIDAZOLE DERIVATIVES AND THEIR USE IN THE TREATMENT OF AUTOIMMUNE OR INFLAMMATORY DISEASES OR CANCERS” (GLAXOSMITHKLINE INTELLECTUAL PROPERTY (NO.2) LIMITED, priority 2016, published 2019)

What was measured:
[1] = molecular target: T1, BRD2 BD1 (Homo sapiens, UniProt P25440, Y386A); experiment: TR-FRET competition assay, BRD2 BD1; type: binding; conditions: TR-FRET competition with Reference Compound X; range stated for the listed group; read-out: mean pIC50 in the BRD2 BD1 assay (converted)
T1 construct: BRD2 (1-473) (Y113A) and (Y386A); made in house; host or cells: E. coli (pET15b)
T1 sequence (P25440 1-473 Y386A): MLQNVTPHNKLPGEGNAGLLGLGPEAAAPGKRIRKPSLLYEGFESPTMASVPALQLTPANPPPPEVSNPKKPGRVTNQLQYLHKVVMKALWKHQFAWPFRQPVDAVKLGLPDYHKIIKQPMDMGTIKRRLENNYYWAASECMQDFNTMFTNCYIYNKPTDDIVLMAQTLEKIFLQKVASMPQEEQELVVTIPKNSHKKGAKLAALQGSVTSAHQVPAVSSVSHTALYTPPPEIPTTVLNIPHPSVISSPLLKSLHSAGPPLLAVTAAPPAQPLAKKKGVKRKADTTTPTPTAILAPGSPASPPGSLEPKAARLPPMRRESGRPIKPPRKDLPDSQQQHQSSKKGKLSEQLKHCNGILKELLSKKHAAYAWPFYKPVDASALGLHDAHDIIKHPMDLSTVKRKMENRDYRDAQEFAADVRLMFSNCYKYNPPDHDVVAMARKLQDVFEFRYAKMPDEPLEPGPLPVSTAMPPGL

[2] = molecular target: T2, BRD2 BD2 (Homo sapiens, UniProt P25440, Y113A); experiment: TR-FRET competition assay, BRD2 BD2; type: binding; conditions: TR-FRET competition with Reference Compound X; range stated for the listed group; read-out: mean pIC50 in the BRD2 BD2 assay (converted)
T2 construct: BRD2 (1-473) (Y113A) and (Y386A); made in house; host or cells: E. coli (pET15b)
T2 sequence (P25440 1-473 Y113A): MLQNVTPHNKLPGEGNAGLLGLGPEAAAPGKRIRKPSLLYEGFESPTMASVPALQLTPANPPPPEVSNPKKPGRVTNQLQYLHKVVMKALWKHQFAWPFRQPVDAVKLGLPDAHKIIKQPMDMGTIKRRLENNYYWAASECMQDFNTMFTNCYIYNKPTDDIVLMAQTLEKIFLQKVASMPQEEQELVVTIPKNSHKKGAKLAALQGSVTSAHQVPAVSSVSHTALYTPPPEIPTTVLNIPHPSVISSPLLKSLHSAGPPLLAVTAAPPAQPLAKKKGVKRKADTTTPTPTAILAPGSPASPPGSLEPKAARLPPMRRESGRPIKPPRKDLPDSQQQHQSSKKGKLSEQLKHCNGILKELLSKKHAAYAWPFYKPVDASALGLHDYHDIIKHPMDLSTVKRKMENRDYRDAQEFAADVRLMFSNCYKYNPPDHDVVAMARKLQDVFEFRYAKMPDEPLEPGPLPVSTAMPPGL

[3] = molecular target: T3, BRDT BD1 (Homo sapiens, UniProt Q58F21, Y309A); experiment: TR-FRET competition assay, BRDT BD1; type: binding; conditions: TR-FRET competition with Reference Compound X; range stated for the listed group; read-out: mean pIC50 in the BRDT BD1 assay (converted)
T3 construct: BRDT (1-397) (Y66A) and (Y309A); made in house; host or cells: E. coli (pET28a)

[4] = molecular target: T4, BRDT BD2 (Homo sapiens, UniProt Q58F21, Y66A); experiment: TR-FRET competition assay, BRDT BD2; type: binding; conditions: TR-FRET competition with Reference Compound X; range stated for the listed group; read-out: mean pIC50 in the BRDT BD2 assay (converted)
T4 construct: BRDT (1-397) (Y66A) and (Y309A); made in house; host or cells: E. coli (pET28a)

[5] = molecular target: T5, BRD3 BD1 (Homo sapiens, UniProt Q15059, Y348A); experiment: TR-FRET competition assay, BRD3 BD1; type: binding; conditions: TR-FRET competition with Reference Compound X; range stated for the listed group; read-out: mean pIC50 in the BRD3 BD1 assay (converted)
T5 construct: BRD3 (1-435) (Y73A) and (Y348A); made in house; host or cells: E. coli (pET15b)
T5 sequence (Q15059 1-435 Y348A): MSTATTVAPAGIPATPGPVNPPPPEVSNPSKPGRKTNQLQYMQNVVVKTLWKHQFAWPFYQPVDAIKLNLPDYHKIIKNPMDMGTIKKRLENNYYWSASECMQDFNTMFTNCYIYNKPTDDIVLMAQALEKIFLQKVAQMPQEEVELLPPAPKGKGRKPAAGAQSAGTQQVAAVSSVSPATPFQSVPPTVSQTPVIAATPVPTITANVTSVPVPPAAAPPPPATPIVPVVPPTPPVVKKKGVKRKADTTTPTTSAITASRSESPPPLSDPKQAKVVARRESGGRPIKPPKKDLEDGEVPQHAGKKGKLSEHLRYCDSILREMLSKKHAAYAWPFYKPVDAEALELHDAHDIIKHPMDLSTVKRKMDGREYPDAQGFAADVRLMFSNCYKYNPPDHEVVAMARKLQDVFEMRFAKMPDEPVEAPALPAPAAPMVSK

[6] = molecular target: T6, BRD3 BD2 (Homo sapiens, UniProt Q15059, Y73A); experiment: TR-FRET competition assay, BRD3 BD2; type: binding; conditions: TR-FRET competition with Reference Compound X; range stated for the listed group; read-out: mean pIC50 in the BRD3 BD2 assay (converted)
T6 construct: BRD3 (1-435) (Y73A) and (Y348A); made in house; host or cells: E. coli (pET15b)
T6 sequence (Q15059 1-435 Y73A): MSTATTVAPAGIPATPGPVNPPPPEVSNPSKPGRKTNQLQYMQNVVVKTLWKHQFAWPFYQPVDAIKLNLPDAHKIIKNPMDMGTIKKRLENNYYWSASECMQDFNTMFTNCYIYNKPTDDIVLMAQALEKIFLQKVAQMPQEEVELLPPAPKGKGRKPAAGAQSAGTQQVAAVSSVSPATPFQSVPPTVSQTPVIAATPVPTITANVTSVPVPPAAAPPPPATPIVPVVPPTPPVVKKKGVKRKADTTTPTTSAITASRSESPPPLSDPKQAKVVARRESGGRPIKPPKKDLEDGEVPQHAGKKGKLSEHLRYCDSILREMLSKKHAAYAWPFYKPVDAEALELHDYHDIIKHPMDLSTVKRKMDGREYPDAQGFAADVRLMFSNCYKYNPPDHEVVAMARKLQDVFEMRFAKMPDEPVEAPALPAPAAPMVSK

[7] = tested on: TNP-KLH induced Immunoglobulin-1 (IgG1) production; experiment: TNP-KLH induced IgG1 production mouse assay; type: in vivo; conditions: for Day 14 IgG1: male CD1 mice
[8] = tested on: MCP-1 production; experiment: LPS induced MCP-1 production from human whole blood; type: cell-based; conditions: human whole blood, LPS 200 ng/mL, 18-24 hours; read-out: mean pIC50, LPS induced MCP-1 production (converted)
[9] = molecular target: T7, BRD4 BD1 (Homo sapiens, UniProt O60885, Y390A); experiment: TR-FRET competition assay, BRD4 BD1; type: binding; conditions: TR-FRET competition with Reference Compound X, single mutant tandem protein; read-out: mean pIC50 in the BRD4 BD1 assay (converted)
T7 construct: BRD4 (1-477) (Y97A) and (Y390A); made in house; host or cells: E. coli (pET15b)

[10] = molecular target: T8, BRD4 BD2 (Homo sapiens, UniProt O60885, Y97A); experiment: TR-FRET competition assay, BRD4 BD2; type: binding; conditions: TR-FRET competition with Reference Compound X, single mutant tandem protein; read-out: mean pIC50 in the BRD4 BD2 assay (converted)
T8 construct: BRD4 (1-477) (Y97A) and (Y390A); made in house; host or cells: E. coli (pET15b)

[11] = tested on: double mutant tandem BET proteins (BRD2, BRD3, BRD4, BRDT); experiment: Fluorescence Polarisation binding of Reference Compound X to mutant tandem BET proteins; design: species or system human

| SMILES | IC50 [1] | IC50 [2] | IC50 [3] | IC50 [4] | other results |
| --- | --- | --- | --- | --- | --- |
| Cc1cc(-c2ncc[nH]2)cn(C)c1=O [Example 1, 5-(1H-imidazol-2-yl)-1,3-dimethylpyridin-2(1H)-one] | 0.0126 to 7.94 µM | 1 to 50.1 µM | 0.0398 to 12.6 µM | > 50.1 µM |  |
| CC(=O)N1CCCC(Cn2cc(Cl)nc2-c2cc(C)c(=O)n(C)c2)C1 (single isomer, unassigned) [Example 25, 5-(1-((1-acetylpiperidin-3-yl)methyl)-4-chloro-1H-imidazol-2-yl)-1,3-dimethylpyridin-2(1H)-one] | 0.0126 to 7.94 µM | 1 to 50.1 µM | 0.0398 to 12.6 µM | 2 to 25.1 µM | IC50 [5]: 20 to 79.4 nM; IC50 [6]: 251 to 1000 nM |
| Cc1cc(-c2nccn2CC2CCOCC2)cn(C)c1=O [Example 6, 1,3-dimethyl-5-(1-((tetrahydro-2H-pyran-4-yl)methyl)-1H-imidazol-2-yl)pyridin-2(1H)-one] | 0.0126 to 7.94 µM | 1 to 50.1 µM | 0.0398 to 12.6 µM | 2 to 25.1 µM |  |
| Cc1cc(-c2nccn2CC2CCCCO2)cn(C)c1=O (racemic) [Example 7, rac-1,3-dimethyl-5-(1-((tetrahydro-2H-pyran-2-yl)methyl)-1H-imidazol-2-yl)pyridin-2(1H)-one] | 0.0126 to 7.94 µM | 1 to 50.1 µM | 0.0398 to 12.6 µM | 2 to 25.1 µM |  |
| Cc1cc(-c2nc(Cl)cn2CC2CCOCC2)cn(C)c1=O [Example 30, 5-(4-chloro-1-((tetrahydro-2H-pyran-4-yl)methyl)-1H-imidazol-2-yl)-1,3-dimethylpyridin-2(1H)-one] |  |  |  |  | IC50 [5]: 20 to 79.4 nM; % reduction in IgG1 from vehicle ([7]; day 14, 1.5 mg/kg BID oral): 0%; % reduction in IgG1 from vehicle ([7]; day 14, 5.0 mg/kg BID oral, ***P<0.01): 86*** %; % reduction in IgG1 from vehicle ([7]; day 14, 15 mg/kg BID oral, ***P<0.01): 99*** %; Day 14 IgG1 ([7]; 1.5 mg/kg BID oral, 14 days): 5.01 ± 3.30 µg/mL; Day 14 IgG1 ([7]; 5.0 mg/kg BID oral, 14 days): 0.85 ± 1.18 µg/mL; Day 14 IgG1 ([7]; 15 mg/kg BID oral, 14 days): 0.03 ± 0.03 µg/mL; adverse side effects during in life phase ([7]; male CD1 mice, 1.5, 5 or 15 mg/kg BID oral, 14 days): No adverse side effects were observed |
| Cc1cc(-c2nccn2CC2CC2)cn(C)c1=O [Example 3, 5-(1-(cyclopropylmethyl)-1H-imidazol-2-yl)-1,3-dimethylpyridin-2(1H)-one] | 0.0126 to 7.94 µM | 1 to 50.1 µM | 0.0398 to 12.6 µM | 2 to 25.1 µM |  |
| Cc1cc(-c2nccn2CC(C)C)cn(C)c1=O [Example 5, 5-(1-isobutyl-1H-imidazol-2-yl)-1,3-dimethylpyridin-2(1H)-one] | 0.0126 to 7.94 µM | 1 to 50.1 µM | 0.0398 to 12.6 µM | 2 to 25.1 µM |  |
| Cc1cc(-c2nc(Cl)cn2CC2CCCOC2)cn(C)c1=O (single isomer, unassigned) [Example 29, 5-(4-chloro-1-((tetrahydro-2H-pyran-3-yl)methyl)-1H-imidazol-2-yl)-1,3-dimethylpyridin-2(1H)-one] | 0.0126 to 7.94 µM | 1 to 50.1 µM | 0.0398 to 12.6 µM | 2 to 25.1 µM | IC50 [5]: 20 to 79.4 nM; IC50 [6]: 251 to 1000 nM |
| Cc1cc(-c2nc(C(=O)O)cn2CC2CCOCC2)cn(C)c1=O [Example 35, 2-(1,5-dimethyl-6-oxo-1,6-dihydropyridin-3-yl)-1-((tetrahydro-2H-pyran-4-yl)methyl)-1H-imidazole-4-carboxylic acid] |  |  |  |  | IC50 [8]: > 20000 nM |
| COCC(COC)n1cc(Cl)nc1-c1cc(C)c(=O)n(C)c1 [Example 22, 5-(4-chloro-1-(1,3-dimethoxypropan-2-yl)-1H-imidazol-2-yl)-1,3-dimethylpyridin-2(1H)-one] |  |  |  |  | IC50 [9]: 50.1 nM; IC50 [10]: 2000 nM; IC50 [8]: 100 nM |
| COc1ccc2c(c1)C(c1ccc(Cl)cc1)=N[C@@H](CC(=O)NCCCCCNC(=O)CCCCCC1(C)/C(=C/C=C/C=C/C3=[N+](CCCCS(=O)(=O)O)c4ccc(S(=O)(=O)O)cc4C3(C)C)N(CCCCS(=O)(=O)[O-])c3ccc(S(=O)(=O)O)cc31)c1nnc(C)n1-2 (stereo partly drawn) [Reference Compound X] |  |  |  |  | reduction in Kd versus non mutated, wild type tandem BET proteins [11]: > 1000 fold |
